The values that follow come from patent US20210378993A1 (Nacuity Pharmaceuticals, Inc., priority 2020, published 2021).

Series [1] has as its system human cystinotic fibroblasts (GM00008). Nature of the series: Cytotoxicity (MTT cell viability) in cystinotic fibroblast cell culture. It is filed as cell-based. As to conditions: 25, 50 or 75 μM, 48 and 72 hours (FIGS. 1 and 2), MTT. On the procedure:
Appropriate concentrations of the NACA and diNACA were selected and incubated along with human cystinotic fibroblasts in media. […] Media was then removed, and cells were incubated in 0.5mg/ml MTT (3-(4,5-dimethylthiazol-2-yl)-2,5-diphenyltetrazolium bromide) reconstituted in media. A colorimetric assay used reduction of the yellow tetrazolium salt (MTT) to a purple formazan salt in order to measure cellular metabolic activity as a proxy for cell viability. Treated cells were incubated in MTT for 4 hours at 37° C., after which time intracellular purple formazan salt crystals were visible under a microscope. MTT solution was then removed, and DMSO was added to each well in order to lyse cells and dissolve the salt crystals. After 1 hour incubation at 37° C., absorbance was measured on a multiwell plate reader (Biotek FL6000) at 570 nm, and percentage cell viability calculated.

The conditions of series [2]: eyedrops, stored at −20° C. until dispensed, kept refrigerated once opened; cited from earlier work.
Another series concerns rabbit eyes. In words: Ophthalmic tolerability, daily Draize scores after topical ocular administration. Format: in vivo. As to conditions: rabbits. On the procedure:
To simulate topical ocular exposure to an ophthalmic insert containing AGENT, prototype ophthalmic formulations were prepared containing either 1% NPI-001, 1% diNACA, 1% NAC or vehicle and tested to evaluate ocular tolerability. Three rabbits per group were administered 1% NPI-001, 1% di-NAC, 1% NAC in a prototype vehicle, via bilateral topical administration four times a day for 6 days, and once on Day 7.

The conditions of series [3]: humans, oral dose of 600 mg; cited from earlier work.
Setting [4] is: 1% in prototype vehicle, bilateral topical four times a day, Day 1, per animal and eye.
The mark [5] stands for this setting: 1% in prototype vehicle, bilateral topical four times a day, Day 2, per animal and eye.
Setting [6] is: 1% in prototype vehicle, bilateral topical four times a day, Day 3, per animal and eye.
Setting [7] is: 1% in prototype vehicle, bilateral topical four times a day, Day 4, per animal and eye.
[8] abbreviates: 1% in prototype vehicle, bilateral topical four times a day, Day 5, per animal and eye.
[9] abbreviates: 1% in prototype vehicle, bilateral topical four times a day, Day 6, per animal and eye.
Setting [10] is: 1% in prototype vehicle, bilateral topical, once on Day 7, Day 7, per animal and eye.
Where [11] appears, read: 1% in prototype vehicle, bilateral topical, (baseline), per animal and eye.

Molecules are shown by their SMILES. Where “and” joins values, the source holds several entries; their conditions need not be identical. Equal values may be shown once.

For the molecule `NCCS` [cysteamine, reference compound], in series [1], the “cell viability (cytotoxicity) versus no treatment” value was “increased cell viability”. Further, the shelf life in series [2] is 1 week.

Consider `CC(=O)NC(CS)C(=O)O` (stereo not shown) [NAC, N-acetylcysteine, reference compound], for which, in the series on rabbit eyes (setting [4]), the “Daily Draize Scores for Chemosis, Day 1” value stood at 0; the “Daily Draize Scores for Discharge, Day 1” value turned out to be 0; the “Daily Draize Scores for Hyperemia, Day 1” value is reported as 0. Moreover, in the series on rabbit eyes (setting [5]), the “Daily Draize Scores for Chemosis, Day 2” value was determined as 0; the “Daily Draize Scores for Discharge, Day 2” value is 0 (4×) and 0.5 (2×); the “Daily Draize Scores for Hyperemia, Day 2” value is 0 (4×) and 0.5 (2×). For the same molecule, in the series with rabbit eyes (setting [6]), the “Daily Draize Scores for Chemosis, Day 3” value is on record as 0; the “Daily Draize Scores for Discharge, Day 3” value was found to be 0; the “Daily Draize Scores for Hyperemia, Day 3” value was 0 (3×) and 0.5 (3×). In the series on rabbit eyes (setting [7]), the “Daily Draize Scores for Chemosis, Day 4” value is 0; the “Daily Draize Scores for Discharge, Day 4” value was 0 (4×) and 1 and 0.5; the “Daily Draize Scores for Hyperemia, Day 4” value worked out at 0. In addition, in the series with rabbit eyes (setting [8]), the “Daily Draize Scores for Chemosis, Day 5” value stood at 0; the “Daily Draize Scores for Discharge, Day 5” value was 0.5 and 0 (5×); the “Daily Draize Scores for Hyperemia, Day 5” value worked out at 0. Besides, in the series on rabbit eyes (setting [9]), the “Daily Draize Scores for Chemosis, Day 6” value amounted to 0; the “Daily Draize Scores for Discharge, Day 6” value is 0 (3×) and 1 (3×); the “Daily Draize Scores for Hyperemia, Day 6” value amounted to 0. In the series on rabbit eyes (setting [10]), the “Daily Draize Scores for Chemosis, Day 7” value is 0; the “Daily Draize Scores for Discharge, Day 7” value was 0.5 (4×) and 1 and 0; the “Daily Draize Scores for Hyperemia, Day 7” value is 1 (3×) and 0.5 (3×). In addition, in the series with rabbit eyes (setting [11]), the “Daily Draize Scores for Chemosis, Day B” value is 0; the “Daily Draize Scores for Discharge, Day B” value turned out to be 0; the “Daily Draize Scores for Hyperemia, Day B” value is reported as 0. Besides, the “ocular hyperemia, observation over the study” value in the series on rabbit eyes (1%, four times a day for 6 days, once on Day 7) is “mild hyperemia was observed at low frequencies”. For the same molecule, the “time after administration at which no NAC is detectable” value in series [3] is 10 to 12 h.
